# PMC8587871, “Novel Thiosemicarbazone Derivatives: In Vitro and In Silico Evaluation as Potential MAO-B Inhibitors” (Molecules, 2021)
# What was measured:
# hMAO-A = biological target: T1, hMAO-A (Homo sapiens, UniProt P21397); assay: In vitro fluorometric MAO-A inhibition assay; type: biochemical; conditions: for inhibition at 1000 µM: 10^−3 M; for inhibition at 100 µM: 10^−4 M
# T1 sequence (P21397 1-527): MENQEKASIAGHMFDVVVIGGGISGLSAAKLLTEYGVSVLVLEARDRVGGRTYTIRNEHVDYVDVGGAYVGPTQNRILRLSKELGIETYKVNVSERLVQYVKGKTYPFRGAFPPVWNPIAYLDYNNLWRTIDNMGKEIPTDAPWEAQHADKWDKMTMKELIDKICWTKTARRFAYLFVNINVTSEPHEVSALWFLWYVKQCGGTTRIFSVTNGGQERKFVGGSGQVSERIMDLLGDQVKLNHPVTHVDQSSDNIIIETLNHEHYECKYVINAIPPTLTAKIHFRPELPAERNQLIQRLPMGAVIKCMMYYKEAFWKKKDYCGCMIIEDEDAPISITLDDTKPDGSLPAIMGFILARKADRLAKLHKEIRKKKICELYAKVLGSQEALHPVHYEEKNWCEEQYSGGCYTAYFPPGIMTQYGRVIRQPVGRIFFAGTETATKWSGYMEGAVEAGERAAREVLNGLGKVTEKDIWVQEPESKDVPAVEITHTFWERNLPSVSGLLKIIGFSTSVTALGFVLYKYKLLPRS
# Protocol: (§1) The inhibition power on MAO isoenzymes of the synthesized compounds was evaluated by using the in vitro fluorometric method declared previously by our research group.
# (§2) The in vitro MAO inhibition test was performed using the available fluorometric method, and the percentages and IC50 values of obtained compounds were calculated as previously described by our research group.
# hMAO-B [1] = biological target: T2, hMAO-B (Homo sapiens, UniProt P27338); assay: In vitro fluorometric MAO-B inhibition assay; type: biochemical; conditions: for inhibition at 1000 µM: 10^−3 M; for inhibition at 100 µM: 10^−4 M; for inhibition at 10 µM: 10^−5 M; for inhibition at 1 µM: 10^−6 M; for inhibition at 0.1 µM: 10^−7 M; for inhibition at 0.01 µM: 10^−8 M; for inhibition at 0.001 µM: 10^−9 M; for IC50: read-out: IC50 against MAO-B
# T2 sequence (P27338 1-520): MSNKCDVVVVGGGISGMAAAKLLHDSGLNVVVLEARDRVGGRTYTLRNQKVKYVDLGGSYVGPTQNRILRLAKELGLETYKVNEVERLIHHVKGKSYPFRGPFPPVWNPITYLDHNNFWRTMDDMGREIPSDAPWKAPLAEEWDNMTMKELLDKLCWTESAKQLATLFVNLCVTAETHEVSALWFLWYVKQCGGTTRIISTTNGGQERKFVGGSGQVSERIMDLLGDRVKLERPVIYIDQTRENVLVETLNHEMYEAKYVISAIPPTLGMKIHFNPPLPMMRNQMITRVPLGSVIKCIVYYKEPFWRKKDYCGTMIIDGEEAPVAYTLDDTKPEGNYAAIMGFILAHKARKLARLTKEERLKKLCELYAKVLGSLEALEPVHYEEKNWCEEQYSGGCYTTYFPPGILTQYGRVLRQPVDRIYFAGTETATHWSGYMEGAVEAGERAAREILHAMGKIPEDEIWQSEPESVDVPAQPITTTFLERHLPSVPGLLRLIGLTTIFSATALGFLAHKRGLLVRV
# Protocol: as §1, §2
# hMAO-B [2] = biological target: T2, hMAO-B; assay: Enzyme kinetic study (Lineweaver–Burk and secondary plots) of hMAO-B inhibition; type: biochemical; conditions: substrate tyramine; for Type of hMAO-B inhibition: Lineweaver–Burk plots; for Ki: secondary plots, read-out: Ki (steady-state inhibition constant) for hMAO-B
# Excerpt: Enzyme kinetic studies help to determine the inhibitory character of the relevant compound on the enzyme as irreversible or reversible inhibition, and to evaluate the nature of the inhibition of the relevant compound. The linear Lineweaver–Burk plots are the most commonly used method for this purpose. […] Enzyme kinetic assay was applied in the same way as previously mentioned. […] The rate curves of substrates were reported in the absence and presence of these compounds. In all cases, initial velocity measurements were collected at various substrate (tyramine) concentrations ranging from 20 µM to 0.625 µM. Thus, linear Lineweaver–Burk graphs of compounds 2b and 2h were formed as in Figure 4A and Figure 5A, respectively.
# According to Lineweaver–Burk plots, reversible and irreversible inhibition type constitute two general categories. Mixed-type, uncompetitive, competitive, and non-competitive inhibition types are included in the reversible inhibition.
# The same materials used in the MAO inhibition assay were used in this experiment. […] All processes were evaluated in quadruplicate. The results were analyzed with Microsoft Office Excel 2013 using Lineweaver–Burk diagrams. […] of the Lineweaver–Burk plots were replotted versus the inhibitors’ concentrations, and the Ki values were determined from the x-axis intercept as -Ki.
# MTT cytotoxicity assay = type: cell-based, mouse; conditions: mouse, NIH/3T3 mouse embryonic fibroblast cells; MTT assay; read-out: IC50 against NIH/3T3 cells
# Protocol: (§3) The NIH/3T3 mouse embryonic fibroblast cell line (ATCC® CRL-1658™, London, UK) was used for cytotoxicity assays. The incubation period of NIH/3T3 cells was based on the supplier’s recommendation. NIH/3T3 cells were seeded at 1 × 10^4 cells into each well of 96-well plates. MTT assay was carried out in accordance with the standards previously described.
# [3] = test system: NIH/3T3 mouse embryonic fibroblast cell line; assay: MTT cytotoxicity assay; type: cell-based; conditions: for Cytotoxicity at effective concentration against MAO-B: MTT assay, NIH/3T3
# Protocol: as §3
SMILES,inhibition at 1000 µM (hMAO-A) [%],inhibition at 100 µM (hMAO-A) [%],inhibition at 1000 µM (hMAO-B [1]) [%],inhibition at 100 µM (hMAO-B [1]) [%],melting point [°C],inhibition at 10 µM (hMAO-B [1]) [%],inhibition at 1 µM (hMAO-B [1]) [%],inhibition at 0.1 µM (hMAO-B [1]) [%],inhibition at 0.01 µM (hMAO-B [1]) [%],inhibition at 0.001 µM (hMAO-B [1]) [%],IC50 (hMAO-B [1]) [nM],Type of hMAO-B inhibition (hMAO-B [2]),Ki (hMAO-B [2]) [nM],IC50 (MTT cytotoxicity assay) [nM],Cytotoxicity at effective concentration against MAO-B [3],"IC50 ([3]; Mus musculus, NIH3T3, Table 3 column 1 as headed) [µM]"
"S=C(NN=Cc1cc2ccccc2s1)NC1CCCCC1 [Compound 2j, 2-(Benzo[b]thiophen-2-ylmethylene)-N-cyclohexylhydrazine-1-carbothioamide]",33.7 ± 0.729,23 ± 0.863,82.9 ± 1.62,43 ± 0.965,213.7 to 215.1,,,,,,,,,,,
"S=C(NN=Cc1cc2ccccc2s1)Nc1ccccc1Cl [Compound 2l, 2-(Benzo[b]thiophen-2-ylmethylene)-N-(2-chlorophenyl)hydrazine-1-carbothioamide]",36.7 ± 0.966,24.4 ± 0.721,83.6 ± 1.6,42.2 ± 0.763,212.6 to 214.4,,,,,,,,,,,
"S=C(NN=Cc1cc2ccccc2s1)Nc1ccccc1 [Compound 2k, 2-(Benzo[b]thiophen-2-ylmethylene)-N-phenylhydrazine-1-carbothioamide]",31.1 ± 0.911,27.9 ± 0.815,80.5 ± 1.48,46.7 ± 0.899,213.9 to 216,,,,,,,,,,,
"S=C(NN=Cc1cc2ccccc2o1)NC1CCCCC1 [Compound 2d, 2-(Benzofuran-2-ylmethylene)-N-cyclohexylhydrazine-1-carbothioamide]",37.5 ± 0.897,20.9 ± 0.834,82.6 ± 1.32,41.1 ± 0.956,191.2 to 192.9,,,,,,,,,,,
"CCCCNC(=S)NN=Cc1cc2ccccc2o1 [Compound 2c, 2-(Benzofuran-2-ylmethylene)-N-butylhydrazine-1-carbothioamide]",30.4 ± 0.902,26.7 ± 0.82,76.3 ± 1.62,43.5 ± 0.728,120.4 to 121.2,,,,,,,,,,,
"S=C(NN=Cc1cc2ccccc2o1)Nc1ccccc1 [Compound 2e, 2-(Benzofuran-2-ylmethylene)-N-phenylhydrazine-1-carbothioamide]",36.7 ± 0.91,23.4 ± 0.832,85.5 ± 1.53,40.8 ± 0.827,205.2 to 206.8,,,,,,,,,,,
"S=C(NN=Cc1cc2ccccc2o1)Nc1ccccc1Cl [Compound 2f, 2-(Benzofuran-2-ylmethylene)-N-(2-chlorophenyl)hydrazine-1-carbothioamide]",31.1 ± 0.994,24.2 ± 0.711,82.4 ± 1.33,47.4 ± 0.93,203.6 to 204.9,,,,,,,,,,,
"COCCNC(=S)NN=Cc1cc2ccccc2o1 [Compound 2b, 2-(Benzofuran-2-ylmethylene)-N-(2-methoxyethyl)hydrazine-1-carbothioamide]",33 ± 0.955,28.4 ± 0.899,91.6 ± 1.65,,147.5 to 148.8,81.5 ± 1.72,75 ± 1.63,66.4 ± 0.975,41.5 ± 0.856,25.8 ± 0.765,42 ± 2,reversible and non-competitive,35,130000,non-cytotoxic,0.042 ± 0.002

# Further lines, with some results ahead:
inhibition at 1000 µM (hMAO-A) [%],inhibition at 100 µM (hMAO-A) [%],inhibition at 1000 µM (hMAO-B [1]) [%],inhibition at 100 µM (hMAO-B [1]) [%],melting point [°C],inhibition at 10 µM (hMAO-B [1]) [%],inhibition at 1 µM (hMAO-B [1]) [%],inhibition at 0.1 µM (hMAO-B [1]) [%],inhibition at 0.01 µM (hMAO-B [1]) [%],inhibition at 0.001 µM (hMAO-B [1]) [%],IC50 (hMAO-B [1]) [nM],Type of hMAO-B inhibition (hMAO-B [2]),Ki (hMAO-B [2]) [nM],SMILES,IC50 (MTT cytotoxicity assay) [nM],Cytotoxicity at effective concentration against MAO-B [3],"IC50 ([3]; Mus musculus, NIH3T3, Table 3 column 1 as headed) [µM]"
38.9 ± 0.854,28.7 ± 0.803,79 ± 1.7,44.8 ± 0.758,198.9 to 201,,,,,,,,,"CCNC(=S)NN=Cc1cc2ccccc2s1 [Compound 2g, 2-(Benzo[b]thiophen-2-ylmethylene)-N-ethylhydrazine-1-carbothioamide]",,,
36.8 ± 0.741,21.9 ± 0.75,90.4 ± 1.6,,164.9 to 166.2,80.8 ± 1.04,72.2 ± 1.39,65 ± 1.11,42.8 ± 0.948,30.9 ± 0.782,56 ± 2,reversible and non-competitive,46,"COCCNC(=S)NN=Cc1cc2ccccc2s1 [Compound 2h, 2-(Benzo[b]thiophen-2-ylmethylene)-N-(2-methoxyethyl)hydrazine-1-carbothioamide]",81300,non-cytotoxic,
34.1 ± 0.927,22.3 ± 0.824,74.2 ± 1.41,46.4 ± 0.997,179.9 to 182.1,,,,,,,,,"CCNC(=S)NN=Cc1cc2ccccc2o1 [Compound 2a, 2-(Benzofuran-2-ylmethylene)-N-ethylhydrazine-1-carbothioamide]",,,
35.7 ± 0.863,29.2 ± 0.816,84.7 ± 1.63,46 ± 0.931,168.9 to 170.7,,,,,,,,,"CCCCNC(=S)NN=Cc1cc2ccccc2s1 [Compound 2i, 2-(Benzo[b]thiophen-2-ylmethylene)-N-butylhydrazine-1-carbothioamide]",,,
